Experimental data: publication PMC5674125, “Towards eco-friendly crop protection: natural deep eutectic solvents and defensive secondary metabolites” (Phytochemistry Reviews, 2017)
Where two headings read alike, the source gives them in different places.

Assays:
Acanthoscelides obtectus = test system: Acanthoscelides obtectus; design: method as in Regnault-Roger et al. (2004); settings: adults, ref Regnault-Roger et al. (2004), cited from earlier work
Mamestra configurata = test system: Mamestra configurata; design: method as in Onyilagha et al. (2004); settings: applied at concentration > endogenous levels, 0.05–0.45 µmol per leaf disk, choice feeding assay; ref Onyilagha et al. (2004); cited from earlier work
Choristoneura fumiferana = test system: Choristoneura fumiferana; design: method as in Grant and Langevin (2002); settings: ref Grant and Langevin (2002), cited from earlier work
Sitobion avanae [1] = test system: Sitobion avanae; design: method as in Leszczynski et al. (1995); settings: ref Leszczynski et al. (1995), cited from earlier work
[2] = Solubility in natural deep eutectic solvents (saturated solutions, UV-VIS); assay type: physicochemical
Procedure: As an extension of these studies, we have investigated the solubility of six insecticidal metabolites in a variety of NADES. The solvent selection framework consisted of the following steps: • Preliminary solvent screening: a pre-selected set of 20 NADES was used as a starting point to identify and rank potential NADES candidates (Table 3). Selection constraints were imposed on important properties such as viscosity and stability.
• Secondary screening: solubility tests were performed to determine the best solvent for each of the metabolites. Saturated solutions, generated by adding an excess amount of each compound to different NADES, were kept under constant stirring (1100 rpm) for 24 h at 50 °C. The 20 candidates were ranked in decreasing order of solvent power. • Solubility verification: For the verification of solubilities, samples were centrifuged for 5 min at 2000 rpm and subsequently diluted suitably with methanol for spectrophotometric analysis (UV-1800 UV–VIS spectrophotometer, Shimadzu Europe GmbH, Duisburg, Germany).

[3] = test system: Frankliniella occidentalis; design: method as in Leiss et al. (2013); settings: 25% of natural plant concentrations (0.53 mg/g); ref Leiss et al. (2013); cited from earlier work
Delia radicum = test system: Delia radicum; design: method as in Jones et al. (1988); settings: 10 mM in buffered solution; ref Jones et al. (1988); cited from earlier work
Liriomyza trifolii = test system: Liriomyza trifolii; design: method as in Kashiwagi et al. (2005); settings: 4.90 µg/cm^2; ref Kashiwagi et al. (2005); cited from earlier work
Etiella zinckenella = test system: Etiella zinckenella; design: method as in Hattori et al. (1992); settings: 0.5 mg; ref Hattori et al. (1992); cited from earlier work
Dalbulus maidis = test system: Dalbulus maidis; design: method as in Dowd and Vega (1996); settings: adults, 400 ppm, in vitro bioassay; ref Dowd and Vega (1996); cited from earlier work
Spilarctia obliqua = test system: Spilarctia obliqua; design: method as in Tripathi et al. (2011); settings: 250 µg/g, compared with azadirachtin; ref Tripathi et al. (2011); cited from earlier work
Plutella xylostella = test system: Plutella xylostella; design: method as in Peterson et al. (2003); settings: ref Peterson et al. (2003); cited from earlier work
Coptotermes formosanus = test system: Coptotermes formosanus; design: method as in Adfa et al. (2010); settings: 5 µmol; ref Adfa et al. (2010); cited from earlier work
Zygogramma exclamationis = test system: Zygogramma exclamationis; design: method as in Olson and Roseland (1991); settings: topical application of 100 µg/ml; ref Olson and Roseland (1991); cited from earlier work
Anopheles arabiensis = test system: Anopheles arabiensis; design: method as in Narayanaswamy et al. (2014); settings: 100 µg/ml; ref Narayanaswamy et al. (2014); cited from earlier work
Acyrthosiphon pisum = test system: Acyrthosiphon pisum; design: method as in Goławska and Łukasik (2012); settings: 100 µg cm^−3; ref Goławska and Łukasik (2012); cited from earlier work
Spodoptera exigua = test system: Spodoptera exigua; design: method as in Cipollini et al. (2008); settings: individual compound in diet plugs; ref Cipollini et al. (2008); cited from earlier work
Sitobion avanae [4] = test system: Sitobion avanae; design: method as in Chrzanowski et al. (2012); settings: ref Chrzanowski et al. (2012); cited from earlier work
Sitodiplosis mosellana = test system: Sitodiplosis mosellana; design: method as in Ding et al. (2000); settings: constitutive levels exceeding 0.35 µg/g fresh weight (1.57 µg/g dry weight); ref Ding et al. (2000); cited from earlier work
Anticarsia gemmatalis = test system: Anticarsia gemmatalis; design: method as in Salvador et al. (2010); settings: 0.65% (mg/ml); ref Salvador et al. (2010); cited from earlier work
Phyllotreta cruciferae = test system: Phyllotreta cruciferae; design: method as in Onyilagha et al. (2012); settings: 1 month old flea beetle, binary feeding bioassay; ref Onyilagha et al. (2012); cited from earlier work
Helicoverpa armigera [5] = test system: Helicoverpa armigera; design: method as in Simmonds (2003); settings: 10^−3 M; ref Simmonds (2003); cited from earlier work
Lymantria dispar = test system: Lymantria dispar; design: method as in Beninger and Abou-Zaid (1997); settings: 0.05%, day 15; ref Beninger and Abou-Zaid (1997); cited from earlier work
Spodoptera litura [6] = test system: Spodoptera litura; design: method as in Jadhav et al. (2012); settings: 1 µg/ml; ref Jadhav et al. (2012); cited from earlier work
Helicoverpa armigera [7] = test system: Helicoverpa armigera; design: method as in Jadhav et al. (2012); settings: 1 µg/ml; ref Jadhav et al. (2012); cited from earlier work
Helicoverpa zea [8] = test system: Helicoverpa zea; design: method as in Simmonds (2003); settings: 10^−3 M; ref Simmonds (2003); cited from earlier work
Spodoptera litura [9] = settings: 0.7–0.8 µg/ml; ref Mallikarjuna et al. (2004); cited from earlier work
[10] = cited from earlier work
Helicoverpa zea [11] = test system: Helicoverpa zea; design: method as in Summers and Felton (1994); settings: 4 mM, ref Summers and Felton (1994), cited from earlier work
Helicoverpa armigera [12] = test system: Helicoverpa armigera; design: method as in Joshi et al. (2014); settings: ref Joshi et al. (2014), cited from earlier work

**Q.** With O=c1cc(-c2ccc(O)c(O)c2)oc2cc(O[C@@H]3O[C@H](CO)[C@@H](O)[C@H](O)[C@H]3O)cc(O)c12 [Luteolin-7-glucoside] as the compound, how does the “Knockdown effect (mobility and mortality)” value (“Knockdown effect” for short) (Acanthoscelides obtectus; in vitro bioassay) read?
**A.** Toxin: knockdown effect: reduced mobility and increased mortality

**Q.** With O=c1c(O[C@@H]2O[C@H](CO)[C@@H](O)[C@H](O)[C@H]2O)c(-c2ccc(O)cc2)oc2cc(O[C@@H]3O[C@H](CO)[C@@H](O)[C@H](O)[C@H]3O)cc(O)c12 [Kaempferol-3,7-diglucoside] as the compound, how does the Feeding deterrence (Mamestra configurata) read?
**A.** Kaempferol-3,7-diglucoside acts as feeding deterrent when applied at concentration > endogenous levels; 0.05–0.45 µmol per leaf disk (choice feeding assay)

**Q.** Which results are given for COc1cc(/C=C/C(=O)O)cc(OC)c1O [Sinapic acid]?
**A.** Oviposition deterrence (Choristoneura fumiferana; 78.6 nmol/cm^2): Oviposition deterrent at 78.6 nmol/cm^2; Phloem sap ingestion (Sitobion avanae [1]; 2.5 mM): Reduced ingestion of phloem sap at 2.5 mM; Solubility [2]: 21.59 ± 0.24 mg/g; Solubility enhancement with NADES compared to aqueous solubility [2]: > 34 fold; Mortality of first instar larvae [3]: Significant increase in mortality of first instar larvae at 25% of natural plant concentrations (0.53 mg/g); Reduction of number of eggs (oviposition deterrent) (Delia radicum): Oviposition deterrent; 10 mM in buffered solution reduced number of eggs by 60–70%

**Q.** For O=c1cc(-c2ccc(O)c(O)c2)oc2cc(O[C@@H]3O[C@H](CO)[C@@H](O)[C@H](O)[C@H]3O[C@@H]3OCC(O)(CO)[C@H]3O)cc(O)c12 (stereo partly drawn) [Luteolin 7-O-β -D-apiofranosyl-(1→2)-β-D-glucopyranoside], which Ovipositional deterrence (Liriomyza trifolii) is on record?
**A.** Ovipositional deterrent at 4.90 µg/cm^2

**Q.** For O=C(O)C=Cc1ccc(O)cc1 [p-Coumaric acid], which Phloem sap ingestion (Sitobion avanae [1]; concentration not given) is on record?
**A.** Reduction ingestion of phloem sap

**Q.** What about the Oviposition deterrence (Etiella zinckenella) of the same compound?
**A.** Oviposition deterrent at 0.5 mg

**Q.** And the Antifeedant activity (Dalbulus maidis)?
**A.** Antifeedant activity in adults at 400 ppm (in vitro bioassay)

**Q.** For COc1cc2ccc(=O)oc2cc1O [Scopoletin], which Phloem sap ingestion (Sitobion avanae [1]; 2.5 mM) is on record?
**A.** Reduced ingestion of phloem sap at 2.5 mM

**Q.** And the “Antifeedant and growth inhibitory activity” value (Spilarctia obliqua)?
**A.** Antifeedant and growth inhibitor. At 250 µg/g deterrence and growth inhibition was similar to that of azadirachtin

**Q.** What about the “Antibiosis (growth inhibitor), concentration in diet” value (Plutella xylostella) of the same compound?
**A.** > 2500 µg/g diet

**Q.** What about the LD50 (Plutella xylostella) of the same compound?
**A.** ~8300 µg/mL

**Q.** What about the “Termicidal and antifeedant effects” value (Coptotermes formosanus) of the same compound?
**A.** Termicidal and antifeedant effects at 5 µmol

**Q.** And the “Feeding deterrence (preference)” value (Zygogramma exclamationis)?
**A.** Phytoalexin: feeding deterrent. Topical application of 100 µg/ml reduces preference

**Q.** And the Repellent activity (Anopheles arabiensis)?
**A.** Repellent activity at 100 µg/ml

**Q.** What does the source list for O=c1cc(-c2ccc(O)c(O)c2)oc2cc(O)cc(O)c12 [Luteolin]?
**A.** Solubility ([2]; 1,2-propanediol: choline chloride: water (1:1:1), water 7.71%, 24 h at 50 °C, mean ± SD, n = 3): 13.08 ± 0.86 mg/g; Solubility enhancement with NADES compared to aqueous solubility ([2]; NADES of Table 4 versus water (Table 2)): > 95 fold; Mortality of first instar larvae [3]: Significant increase in mortality of first instar larvae at 25% of natural plant concentrations (0.53 mg/g); Probing and feeding deterrence (Acyrthosiphon pisum): Probing and feeding deterrent at 100 µg cm^−3; Anti-herbivory activity (Spodoptera exigua): no anti-herbivory activity was observed; Feeding (Spodoptera exigua): marginally stimulating feeding

**Q.** With COc1cc(/C=C/C(=O)O)ccc1O [Ferulic acid] as the compound, how does the “Knockdown effect” value (Acanthoscelides obtectus; day 8, in vitro bioassay) read?
**A.** Knockdown effect: reduced mobility and increased mortality of adults at day 8 (in vitro bioassay)

**Q.** What about the Oviposition deterrence (Choristoneura fumiferana; 7.8 nmol/cm^2, dual choice bioassay) of the same compound?
**A.** Oviposition deterrent 7.8 nmol/cm^2 (dual choice bioassay)

**Q.** What about the Sieve element salvation (Sitobion avanae [1]; 2.5 mM) of the same compound?
**A.** Reduced sieve element salvation at 2.5 mM

**Q.** What about the “Reproductive period and daily fecundity” value (Sitobion avanae [4]) of the same compound?
**A.** Prolonged reproductive period and reduced daily fecundity

**Q.** What about the Antifeedant activity (Dalbulus maidis) of the same compound?
**A.** Antifeedant activity in adults at 400 ppm (in vitro bioassay)

**Q.** And the “Mortality of newly hatched larvae” value (Sitodiplosis mosellana)?
**A.** Constitutive levels exceeding 0.35 µg/g fresh weight (1.57 µg/g dry weight) increased mortality of newly hatched larvae

**Q.** Which results are given for C[C@@H]1O[C@@H](OC[C@H]2O[C@@H](Oc3c(-c4ccc(O)c(O)c4)oc4cc(O)cc(O)c4c3=O)[C@H](O)[C@@H](O)[C@@H]2O)[C@H](O)[C@H](O)[C@H]1O [Rutin]?
**A.** Larval development, amount of food consumed, pupal weight (Anticarsia gemmatalis): Larval development, amount of food consumed, and pupal weight were negatively influenced at 0.65% (mg/ml); Knockdown effect (mobility and mortality) (Acanthoscelides obtectus; in vitro bioassay): Knockdown effect in bioassay: reduced mobility and increased mortality of adults; Feeding deterrence (Phyllotreta cruciferae): Feeding deterrent of 1 month old flea beetle (binary feeding bioassay); Feeding deterrence (Helicoverpa armigera [5]): Feeding deterrent at 10^−3 M; Larval weight reduction (Lymantria dispar): Larval growth inhibitor. Larval weight reduced by 45% at 0.05% at day 15; Larval development, pupal mortality, adult malformation (Spodoptera litura [6]): Larval development arrested, increased pupal mortality and malformation of adults at 1 µg/ml; Feeding and larval growth (Helicoverpa armigera [7]): Cessation of feeding inhibits larval growth (1 µg/ml); Solubility ([2]; 1,2-propanediol: choline chloride: water (1:1:3), water 20.04%, 24 h at 50 °C, mean ± SD, n = 3): 18.46 ± 0.67 mg/g; Solubility increase compared to water ([2]; PCH (1:1:3) versus water (Tables 2, 4)): fivefold; Feeding deterrence (Helicoverpa zea [8]): Feeding deterrent at 10^−3 M; Development (Spodoptera litura [9]): Developmental retardation; Larval mortality (Spodoptera litura [9]): > 60%; Solubility in NADES diluted with water ([10]; diluted with 5–10% of water, ref Dai et al. (2013)): higher solubility; Solubility in NADES compared to aqueous solubility ([10]; ref Dai et al. (2013, 2015)): significantly increased

**Q.** Which “Prooxidant effect on midgut proteins” value (Helicoverpa zea [11]; chronic exposure) does the source give for O=C(O)/C=C/c1ccc(O)c(O)c1 [Caffeic acid] here?
**A.** oxidative stress in midgut proteins

**Q.** And the “Development rate, survivorship and pupal weight” value (Helicoverpa zea [11])?
**A.** Development rate, survivorship and pupal weight negatively influenced

**Q.** What about the “Knockdown effect” value (Acanthoscelides obtectus; in vitro bioassay) of the same compound?
**A.** Knockdown effect: reduced mobility and increased mortality in adults (in vitro bioassay)

**Q.** What about the Phloem sap ingestion (Sitobion avanae [1]; 2.5 mM) of the same compound?
**A.** Reduction of phloem sap ingestion at 2.5 mM

**Q.** And the “Body weight and survival” value (Helicoverpa armigera [12]; range of 50–200 ppm)?
**A.** Body weight and survival significantly reduced

**Q.** And the Mode of action (Helicoverpa armigera [12])?
**A.** Protease inhibitor
